Experimental data reported in US20250374927A1, “HERBICIDAL COMBINATIONS AND A METHOD FOR CONTROLLING UNDESIRED VEGETATION” (UPL Mauritius Limited, priority 2022, published 2025).

Test system: Borreria verticillata
Test: Post-emergence herbicidal efficacy of L-glufosinate ammonium, additional herbicides and their combinations (observed vs Colby expected)
Type: in vivo
Description: Methodology: Trials were carried out to evaluate the efficacy of the combination comprising L-glufosinate ammonium and the additional herbicides on Spermacoce genus weeds.
The soil used was sandy clay loam-sand: 68.0%; silt: 8.0%; clay: 24.0%.
All treatments were in 4 replications per treatment with a spray volume of about 150 L/ha.
Efficacy Evaluation: The expected efficacy of the combination comprising L-glufosinate ammonium and additional herbicides was calculated using the well-established Colby method.
In the Colby method, the expected (or predicted) response of a combination of herbicides is calculated by taking the product of the observed response for each individual component of the combination when applied alone, divided by 100, and subtracting this value from the sum of the observed response for each component when applied alone. An unexpected enhancement in efficacy of the combination is then determined by comparing the observed response of the combination to the expected (or predicted) response as calculated from the observed response of each individual component alone. If the observed response of the combination is greater than the expected (or predicted) response, or stated conversely, if the difference between the observed and expected response is greater than zero, then the combination is said to be synergistic or unexpectedly effective (Colby, S. R., Weeds, 1967(15), p. 20-22). The Colby method requires only a single dose of each herbicide applied alone and the mixture of both doses. The formula used to calculate the expected efficacy (EE) which was compared with the observed efficacy (OE) to determine the efficacy of the present disclosure is explained hereinbelow:
The expected efficacy for a combination of two active ingredients is as follows:
The expected efficacy for a combination of three active ingredients is as follows: […]

Question: How did the “Observed efficacy (%) of 2,4-D choline (137 g a.i./ha)” value (7 DAA, 137 g a.i./ha, Example 9) turn out when `C[N+](C)(C)CCO.O=C([O-])COc1ccc(Cl)cc1Cl` [2,4-D choline, 2,4-dichlorophenoxyacetic acid (2,4-D) choline] was run?
Answer: The value was 30%.

Question: What about the “Observed efficacy (%) of 2,4-D choline (228 g a.i./ha)” value (7 DAA, 228 g a.i./ha, Example 10) of the same molecule?
Answer: Its value is 30%.

Question: For `COc1c(Cl)ccc(Cl)c1C(=O)O` [Dicamba], which “Observed efficacy (%) of Dicamba (228 g a.i./ha)” value (7 DAA, 228 g a.i./ha, Example 1) is on record?
Answer: The value was 45%.

Question: What about the “Observed efficacy (%) of Dicamba (228 g a.i./ha)” value (28 DAA, 228 g a.i./ha, Example 1) of the same molecule?
Answer: Its value is 40%.

Question: What does the source list for `COc1c(Cl)ccc(-c2nc(C(=O)OCc3ccccc3)c(Cl)c(N)c2F)c1F` [Florpyrauxifen-benzyl]?
Answer: Observed efficacy (%) of Florpyrauxifen-benzyl (15 g a.i./ha) (7 DAA, Example 2): 30%; Observed efficacy (%) of Florpyrauxifen-benzyl (15 g a.i./ha) (28 DAA, Example 2): 20%

Question: Which “Observed efficacy (%) of Imazamox (21 g a.i./ha)” value (3 DAA, 21 g a.i./ha, Example 6) does the source give for `COCc1cnc(C2=NC(C)(C(C)C)C(=O)N2)c(C(=O)O)c1` (stereo not drawn) [Imazamox] here?
Answer: The value was 10%.

Question: Which results are given for `Cc1cnc(C2=NC(=O)C(C)(C(C)C)N2)c(C(=O)O)c1` (stereo not drawn) [Imazapic]?
Answer: Observed efficacy (%) of Imazapic (59 g a.i./ha) (3 DAA, Example 7): 10%; Observed efficacy (%) of Imazapic (59 g a.i./ha) (7 DAA, Example 7): 20%; Observed efficacy (%) of Imazapic (59 g a.i./ha) (14 DAA, Example 7): 35%; Observed efficacy (%) of Imazapic (59 g a.i./ha) (21 DAA, Example 7): 30%; Observed efficacy (%) of Imazapic (59 g a.i./ha) (28 DAA, Example 7): 40%; Observed efficacy (%) of Imazapic (59 g a.i./ha) (35 DAA, Example 7): 60%

Question: For `CP(=O)(O)CC[C@H](N)C(=O)O.N` [L-glufosinate ammonium], which “Observed efficacy (%) of L-glufosinate ammonium (Glufosinate-P-ammonium) (150 g a.i./ha)” value (3 DAA, Example 6) is on record?
Answer: The value was 55%.

Question: And the “Observed efficacy (%) of L-glufosinate ammonium (Glufosinate-P-ammonium) (150 g a.i./ha)” value (3 DAA, Example 7)?
Answer: The value was 50%.

Question: What about the “Observed efficacy (%) of L-glufosinate ammonium (Glufosinate-P-ammonium) (150 g a.i./ha)” value (3 DAA, Example 8) of the same molecule?
Answer: The value was 50%.

Question: And the “Observed efficacy (%) of L-glufosinate ammonium (Glufosinate-P-ammonium) (150 g a.i./ha)” value (7 DAA, Example 1)?
Answer: Its value is 65%.

Question: And the “Observed efficacy (%) of L-glufosinate ammonium (Glufosinate-P-ammonium) (150 g a.i./ha)” value (7 DAA, Example 2)?
Answer: Its value is 65%.

Question: What about the “Observed efficacy (%) of L-glufosinate ammonium (Glufosinate-P-ammonium) (150 g a.i./ha)” value (7 DAA, Example 3) of the same molecule?
Answer: The value was 85%.

Question: And the “Observed efficacy (%) of L-glufosinate ammonium (Glufosinate-P-ammonium) (150 g a.i./ha)” value (7 DAA, Example 5)?
Answer: The value was 90%.

Question: What about the “Observed efficacy (%) of L-glufosinate ammonium (Glufosinate-P-ammonium) (150 g a.i./ha)” value (7 DAA, Example 7) of the same molecule?
Answer: The value was 80%.

Question: And the “Observed efficacy (%) of L-glufosinate ammonium (Glufosinate-P-ammonium) (150 g a.i./ha)” value (7 DAA, Example 8)?
Answer: The value was 80%.

Question: And the “Observed efficacy (%) of L-glufosinate ammonium (Glufosinate-P-ammonium) (150 g a.i./ha)” value (14 DAA, Example 3)?
Answer: The value was 80%.

Question: And the “Observed efficacy (%) of L-glufosinate ammonium (Glufosinate-P-ammonium) (150 g a.i./ha)” value (14 DAA, Example 5)?
Answer: The value was 80%.

Question: And the “Observed efficacy (%) of L-glufosinate ammonium (Glufosinate-P-ammonium) (150 g a.i./ha)” value (14 DAA, Example 7)?
Answer: The value was 95%.

Question: And the “Observed efficacy (%) of L-glufosinate ammonium (Glufosinate-P-ammonium) (150 g a.i./ha)” value (14 DAA, Example 8)?
Answer: Its value is 95%.

Question: What about the “Observed efficacy (%) of L-glufosinate ammonium (Glufosinate-P-ammonium) (150 g a.i./ha)” value (21 DAA, Example 7) of the same molecule?
Answer: Its value is 90%.

Question: And the “Observed efficacy (%) of L-glufosinate ammonium (Glufosinate-P-ammonium) (150 g a.i./ha)” value (21 DAA, Example 8)?
Answer: Its value is 90%.

Question: What about the “Observed efficacy (%) of L-glufosinate ammonium (Glufosinate-P-ammonium) (150 g a.i./ha)” value (28 DAA, Example 1) of the same molecule?
Answer: Its value is 95%.

Question: And the “Observed efficacy (%) of L-glufosinate ammonium (Glufosinate-P-ammonium) (150 g a.i./ha)” value (28 DAA, Example 2)?
Answer: Its value is 95%.

Question: What about the “Observed efficacy (%) of L-glufosinate ammonium (Glufosinate-P-ammonium) (150 g a.i./ha)” value (28 DAA, Example 4) of the same molecule?
Answer: The value was 90%.

Question: And the “Observed efficacy (%) of L-glufosinate ammonium (Glufosinate-P-ammonium) (150 g a.i./ha)” value (28 DAA, Example 7)?
Answer: The value was 90%.

Question: And the “Observed efficacy (%) of L-glufosinate ammonium (Glufosinate-P-ammonium) (150 g a.i./ha)” value (28 DAA, Example 8)?
Answer: Its value is 90%.

Question: What about the “Observed efficacy (%) of L-glufosinate ammonium (Glufosinate-P-ammonium) (150 g a.i./ha)” value (35 DAA, Example 4) of the same molecule?
Answer: The value was 85%.

Question: What about the “Observed efficacy (%) of L-glufosinate ammonium (Glufosinate-P-ammonium) (150 g a.i./ha)” value (35 DAA, Example 7) of the same molecule?
Answer: Its value is 85%.

Question: What about the “Observed efficacy (%) of L-glufosinate ammonium (Glufosinate-P-ammonium) (150 g a.i./ha)” value (35 DAA, Example 8) of the same molecule?
Answer: The value was 85%.

Question: Which “Observed efficacy (%) of Mesotrione (360 g a.i./ha)” value (28 DAA, Example 4) does the source give for `CS(=O)(=O)c1ccc(C(=O)C2C(=O)CCCC2=O)c([N+](=O)[O-])c1` [Mesotrione] here?
Answer: The value was 75%.

Question: And the “Observed efficacy (%) of Mesotrione (360 g a.i./ha)” value (35 DAA, Example 4)?
Answer: Its value is 75%.

Question: What does the source list for `CSc1nnc(C(C)(C)C)c(=O)n1N` [Metribuzin]?
Answer: Observed efficacy (%) of Metribuzin (360 g a.i./ha) (7 DAA, Example 5): 90%; Observed efficacy (%) of Metribuzin (360 g a.i./ha) (14 DAA, Example 5): 30%

Question: `CCOc1cc(Oc2ccc(C(F)(F)F)cc2Cl)ccc1[N+](=O)[O-]` [Oxyfluorfen] was tested. Which “Observed efficacy (%) of Oxyfluorfen (430 g a.i./ha)” value (7 DAA, Example 3) did it give?
Answer: Its value is 65%.

Question: What about the “Observed efficacy (%) of Oxyfluorfen (430 g a.i./ha)” value (14 DAA, Example 3) of the same molecule?
Answer: The value was 70%.
